Measurements: PMC6503114, “Application of Antimicrobial Peptides of the Innate Immune System in Combination With Conventional Antibiotics—A Novel Way to Combat Antibiotic Resistance?” (Frontiers in Cellular and Infection Microbiology, 2019)
Where two headings read alike, the source gives them in different places. Marks after values point to notes of the source that are not given here.

Key:
A. baumannii 7226/16 [1] = test: microbe, parasite or virus in culture; assay type: cell-based; settings: Acinetobacter baumannii; A. baumannii 7226/16, drug-resistant clinical isolate
Protocol: (§1) Prior to the “checkerboard” synergy test the minimal inhibitory concentrations (MIC) of individual substances were determined using broth microdilution assay. Testing was performed in 60-well polystyrene Terasaki microplates with V-shaped bottom generally according to the guidelines of the European Committee for Antimicrobial Susceptibility Testing with subtle modifications designed for AMP testing (Tossi et al., [1997]; Wiegand et al., [2008]). Cultivation of bacteria was carried out in 2.1% Müller-Hinton broth at 37°C with shaking. Two-fold serial dilutions of peptides, antibiotics and other antimicrobials were made with 10 mM sodium phosphate buffer, pH 7.4, containing 0.1% of BSA. The plates were preliminary incubated with 0.1% BSA for 1 h at 37°C to reduce a non-specific binding of peptides to the plates. After that BSA was removed, and serial dilutions were added into the plate wells in triplicates followed by the same volume of the suspension of bacterial cells in logarithmic phase of growth in concentration of 1 × 10^6 CFU/ml. After the 18 h overnight incubation at 37°C, the MIC value for each compound was determined as its lowest concentration completely inhibiting the visible growth of bacteria. The final results were calculated as median values based on 3–6 independent experiments.

E. coli ESBL 521/17 [2] = test: microbe, parasite or virus in culture; assay type: cell-based; settings: Escherichia coli, ESBL521/17; E. coli ESBL 521/17, drug-resistant clinical isolate; square brackets = twice the maximal tested concentration
Protocol: as §1

[3] = tested on: K. pneumoniae ESBL 344/17; test: microbe, parasite or virus in culture; assay type: cell-based; settings: Klebsiella pneumoniae, ESBL344/17; K. pneumoniae ESBL 344/17, drug-resistant clinical isolate
Protocol: as §1

P. aeruginosa MDR 522/17 [4] = test: microbe, parasite or virus in culture; assay type: cell-based; settings: Pseudomonas aeruginosa, MDR522/17; P. aeruginosa MDR 522/17, drug-resistant clinical isolate
Protocol: as §1

S. aureus 1399/17 [5] = test: microbe, parasite or virus in culture; assay type: cell-based; settings: Staphylococcus aureus
Protocol: as §1

E. coli ESBL 521/17 [6] = test: Checkerboard titration (FICI); assay type: cell-based, Escherichia coli
Protocol: (§2) The combined antimicrobial action of AMPs and other antimicrobial compounds was assessed using checkerboard titration approach under the conditions similar to that of the microdilution assay. According to checkerboard titration template, one component (A) of the combination was diluted along the rows of the plate, while the other (B) was diluted down the columns, thereby creating the variety of mixtures with different concentrations of tested compounds. 2.5 μl of corresponding solutions of the components A and B were added into each well of the plate. Into the first column and the last row the same amount of 10 mM sodium phosphate buffer, pH 7.4, containing 0.1% of BSA was introduced instead of the second component. Thus, all wells contained 5 μl of antimicrobial compounds solutions (solo or in combination). The same volume of bacterial suspension, prepared as described for microdilution assay, was added into each well. The results were recorded after the overnight incubation, visually indicating the presence or absence of the microbial growth in the corresponding wells. Based on the obtained data the isobolograms of combined action were plotted and/or Fractional Inhibitory Concentration Indices (FICI) were calculated. […] Depending on the minimal value of the FICI the combined effect of the combination was classified as antagonism (FICI > 2), independent action (1 < FICI ≤ 2), additivity (0.5 < FICI ≤ 1) or synergy (FICI ≤ 0.5), as is recommended in the literature and due to some drawbacks of the serial dilution method (Hsieh et al., [1993]; Orhan et al., [2005]; Fehri et al., [2007]). FICIs were assessed in 3–6 independent experiments and median values were used to define the nature of interaction.

A. baumannii 7226/16 [7] = test: Checkerboard titration (FICI); assay type: cell-based, Acinetobacter baumannii
Protocol: as §2

P. aeruginosa MDR 522/17 [8] = test: Checkerboard titration (FICI); assay type: cell-based, Pseudomonas aeruginosa
Protocol: as §2

[9] = tested on: K. pneumoniae ESBL 344/17; test: Checkerboard titration (FICI); assay type: cell-based, Klebsiella pneumoniae
Protocol: as §2

S. aureus 1399/17 [10] = test: Checkerboard titration (FICI); assay type: cell-based, Staphylococcus aureus
Protocol: as §2

Human PBMC = test: MTT-test
Protocol: To obtain neutrophils and mononuclear cells, whole heparinized blood was diluted with sterile PBS in a 1:1 ratio and carefully inserted into the sterile polystyrene 50 ml tube upon the 5 ml of the sterile Ficoll-400 (Pharmacia, Sweden) with a density of 1.077. The tube was centrifuged at 600 g and 4°C for 40 min. After separation, the mononuclear “ring” located between the blood plasma and Ficoll was collected with a Pasteur pipette, transferred to another tube, and washed twice with 10 ml of sterile PBS by centrifugation for 10 min at 300 g and 4°C.
(§3) We calculated Fractional Effective Concentration Index (FECI), which could be seen as a particular case of the interaction index (I) proposed by Berenbaum ([1977]) or of the similar combination index (CI) proposed by Chou and Talalay ([1983]), according to the equation below: […]
(§4) Here, [MEC A] and [MEC B] are the minimum effective concentrations (MEC) of substances A and B, when they are used alone. […] [A] and [B] are respective concentrations of substances A and B in their combination, where the same statistically significant difference is detected. A non-parametric Mann-Whitney U-test (p < 0.05 or p < 0.01) was used for the mentioned statistical comparison.
(§5) We have chosen the same intervals as that of FICI to determine synergy, additivity, independent action, and antagonism based on the minimal FECI values. However, in case of cytotoxic or hemolytic effect we were interested mainly in testing the possibility of additive or synergistic interaction itself, and not in assessing the exact magnitude of such interaction. Thus, in contrast to the “checkerboard titration” method used for combined antimicrobial activity investigation, studying the combined cytotoxic effect, we considered only two combinations of concentrations for the substances A and B in the mixture: • (½ MEC A + ½ MEC B), which, if found effective, provides the FECI value of 1 (the threshold value for additivity); • (¼ MEC A + ¼ MEC B), which, if found effective, provides the FECI value of 0.5 (the threshold value for synergetic interaction).
(§6) When action on tumor cells was tested in combination with antitumor antibiotic the lower concentrations up to ( 1/16 MEC A + 1/16 MEC B) as in checkerboard titration were additionally examined to assess the magnitude of synergistic effect more precisely. The final conclusion was made based on the three independent experiments.
(§7) Standard MTT-test (Mosmann, [1983]) was used for the examination of the cytotoxic activity of antimicrobial compounds and their combinations toward varied eukaryotic cells. Briefly, cell suspensions in RPMI-1640 prepared as described in Eukaryotic Cells were dispensed into the 96-well microplates (2 × 10^5 cells/well). Then, serial dilutions of AMPs, or other antibiotic compounds, or their mixtures in RPMI-1640 were added. In positive controls (100% cell survival) the according volume of RPMI-1640 without test substances was added instead. The final volume in each well was 100 μl. Negative controls (0% cell survival) were made with 100 μl of the sterile RPMI-1640. The plates were incubated at 37°C under 5% CO2 for 24 h. Four hours before the end of incubation, 10 μl of metabolic marker MTT−3-(4,5-dimethylthiazol-2-yl)-2,5-diphenyltetrazolium bromide (5 mg/ml, diluted in PBS) was added to each well. Incubation was stopped by adding 90 μl of isopropanol containing 0.04 M HCl. Content of the wells was thoroughly mixed, so that the formazan crystals, formed in case of the reduction of MTT in presence of actively metabolizing cells, were fully dissolved. The optical density of the samples was evaluated at 540 nm, subtracting the background absorbance at 690 nm, by SpectraMax 250 Spectrophotometer (Molecular Devices, USA). The experiments were repeated at least three times. In each experiment test samples were made in triplicates and control samples were made in hexaplicates.

Human neutrophils = tested on: Human neutrophils
Protocol: The pellet formed under the Ficoll-400 layer after separation contained both neutrophils and erythrocytes. It was also transferred into a separate tube, where the red blood cells were lysed with 0.83% ammonium chloride solution, which was added in a ratio of 1:4. After the thorough mixing, the suspension was incubated for 10 min at room temperature, and then centrifuged for 10 min at 300 g and 4°C. The resulting precipitate containing neutrophils was washed twice with the sterile PBS.
as §3, §4, §5, §6, §7

[11] = tested on: Murine peritoneal macrophages; test: MTT-test
Protocol: (§8) Before the cells extraction, mice were sacrificed by cervical dislocation in accordance with the supplement to the Directive 86/609/EEC and its update Directive 2010/63/EU addressing the recommendations for euthanasia of experimental animals (Close et al., [1996]). To obtain peritoneal macrophages, healthy mice were used. The abdominal cavity of each animal was washed with 3 ml of sterile PBS using a Pasteur pipette. The culture of EAC cells was kindly provided by Dr. E.P. Kiseleva (Immunology Department of the Institute of Experimental Medicine, Saint Petersburg, Russia). On the tenth day after the intraperitoneal tumor inoculation, 0.5–1.5 ml of ascitic fluid containing EAC cells was obtained from the abdominal cavity of the animals. Murine cells (normal or tumor) were washed twice with 10 ml of sterile PBS and resuspended in RPMI-1640 medium as described above for human neutrophils and PBMC.
as §3, §4, §5, §6
as §7, with “dissolved.” for “dissolved. The optical density of the samples was evaluated at 540 nm, subtracting the background absorbance at 690 nm, by SpectraMax 250 Spectrophotometer (Molecular Devices, USA). The experiments were repeated at least three times. In each experiment test samples were made in triplicates and control samples were made in hexaplicates.”

K562 = tested on: K562
Protocol: (§9) The human erythromyeloid leukemia cell line K562 was obtained from the collection of the Institute of Cytology RAS (Saint Petersburg, Russia) and cultured in RPMI-1640 medium containing gentamicin (100 μg/ml) and 10% of fetal bovine serum at 37°C, 5% CO2. […] Drug resistance was maintained by monthly selection with the antibiotic (2 μg/ml in the culturing medium). Doxorubicin was removed from the medium 3 days prior to beginning any experiments. Before the testing K562 cells were washed twice with PBS and resuspended in RPMI-1640 in the same way as the other cell types.
as §3, §4, §5, §6
as §7, with “dissolved.” for “dissolved. The optical density of the samples was evaluated at 540 nm, subtracting the background absorbance at 690 nm, by SpectraMax 250 Spectrophotometer (Molecular Devices, USA). The experiments were repeated at least three times. In each experiment test samples were made in triplicates and control samples were made in hexaplicates.”

[12] = tested on: doxorubicin-resistant K562 tumor cells
Protocol: as §9, §3, §4, §5, §6
as §7, with “dissolved.” for “dissolved. The optical density of the samples was evaluated at 540 nm, subtracting the background absorbance at 690 nm, by SpectraMax 250 Spectrophotometer (Molecular Devices, USA). The experiments were repeated at least three times. In each experiment test samples were made in triplicates and control samples were made in hexaplicates.”

Murine EAC = test: MTT-test; assay type: cell-based, mice; settings: Murine EAC tumor cells, 24 h
Protocol: as §8, §3, §4, §5, §6
as §7, with “dissolved.” for “dissolved. The optical density of the samples was evaluated at 540 nm, subtracting the background absorbance at 690 nm, by SpectraMax 250 Spectrophotometer (Molecular Devices, USA). The experiments were repeated at least three times. In each experiment test samples were made in triplicates and control samples were made in hexaplicates.”

[13] = antibiotic in combination with ChBac3.4
[14] = antibiotic in combination with PG-1

Compound	MIC (A. baumannii 7226/16 [1]) [µM]	MIC (E. coli ESBL 521/17 [2]) [µM]	MIC [3] [µM]	MIC (P. aeruginosa MDR 522/17 [4]) [µM]	Minimal FICI (E. coli ESBL 521/17 [6]; [13])	Minimal FICI (E. coli ESBL 521/17 [6]; [14])	Minimal FICI (A. baumannii 7226/16 [7]; [13])	Minimal FICI (A. baumannii 7226/16 [7]; [14])	Minimal FICI (P. aeruginosa MDR 522/17 [8]; [13])	Minimal FICI (P. aeruginosa MDR 522/17 [8]; [14])	Minimal FICI [9, 13]	Minimal FICI [9, 14]	Minimal FICI (S. aureus 1399/17 [10]; [13])	Minimal FICI (S. aureus 1399/17 [10]; [14])	further results
NCC[C@H](O)C(=O)N[C@@H]1C[C@H](N)[C@@H](O[C@H]2O[C@H](CN)[C@@H](O)[C@H](O)[C@H]2O)[C@H](O)[C@H]1O[C@H]1O[C@H](CO)[C@@H](O)[C@H](N)[C@H]1O [Amikacin]	6.25	1	0.25	1	0.62	0.38	0.5^*	0.38^*	0.5	0.5	0.38	0.31	0.125^*	1.0	MIC (S. aureus 1399/17 [5]; S. aureus 1399/17, drug-resistant clinical isolate, read-out: MIC): > 50 µM
C[C@@H](O)[C@H]1C(=O)N2C(C(=O)O)=C(S[C@@H]3CN[C@H](C(=O)N(C)C)C3)[C@H](C)[C@H]12 [Meropenem]	> 50	0.04	0.04	25	1.0	1.0	0.5^*	0.38^*	0.62	1.0	1.0	1.0	0.31^*	0.25^*	MIC (S. aureus 1399/17 [5]; 1399/17): 6.25 µM
CC(C)C[C@H](NC(=O)[C@H](CCCNC(=N)N)NC(=O)CNC(=O)CNC(=O)[C@@H](N)CCCNC(=N)N)C(=O)N[C@H]1CSSC[C@@H](C(=O)N[C@H](C(=O)NCC(=O)N[C@@H](CCCNC(=N)N)C(N)=O)C(C)C)NC(=O)[C@H](C(C)C)NC(=O)[C@@H]2CSSC[C@H](NC(=O)[C@H](Cc3ccc(O)cc3)NC1=O)C(=O)N[C@@H](CCCNC(=N)N)C(=O)N[C@@H](CCCNC(=N)N)C(=O)N[C@@H](CCCNC(=N)N)C(=O)N[C@@H](Cc1ccccc1)C(=O)N2 [PG-1, protegrin 1]	–	–	–	–	–	–	–	–	–	–	–	–	–	–	MEC of cytotoxic action (Human PBMC): 5.0 µM; MEC of cytotoxic action (Human neutrophils): 2.5 µM; MEC of cytotoxic action [11]: 2.5 µM; minimal FECI (combined cytotoxic action) (K562): 0.25; MEC of cytotoxic action (K562; K562 tumor cells (doxorubicin-sensitive), MTT, 24 h): 1.25 µM; minimal FECI (combined cytotoxic action) [12]: 0.38; MEC ([12]; doxorubicin-resistant K562 cell line): 5.0 µM; enhancement in MEC values comparing susceptible and resistant cell lines ([12]; doxorubicin-resistant vs susceptible K562): 4 times; MEC of cytotoxic action (Murine EAC): 1.25 µM
